Data published in PubChem BioAssay AID328 (DTP/NCI, 2004).
Values joined by “and” are separate entries in the source; they are usually repeats but may differ in a detail not shown here. Equal values may be shown once. Inconclusive results and toxic doses are left out.

Tested on: BDF1 mice, P388 leukemia ip, median survival T/C
Assay: NCI In Vivo Anticancer Drug Screen. Data for tumor model P388 Leukemia (intraperitoneal) in B6D2F1 (BDF1) mice
Details: endpoint: median survival time, higher = longer survival
Procedure, shortened: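 Transplantable tumour in mice; compound vs vehicle dosing; survival scored; ratio of treated to control reported.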

[1] = dose: 12.5 mg/kg/injection, schedule: Q01DX009 (ip), vehicle: Klucel (hydroxypropylcellulose) (HPC)
[2] = dose: 25.0 mg/kg/injection, schedule: Q01DX009 (ip), vehicle: Klucel (hydroxypropylcellulose) (HPC)
[3] = dose: 50.0 mg/kg/injection, schedule: Q01DX009 (ip), vehicle: Klucel (hydroxypropylcellulose) (HPC)
[4] = dose: 100.0 mg/kg/injection, schedule: Q01DX009 (ip), vehicle: Klucel (hydroxypropylcellulose) (HPC)
[5] = dose: 100.0 mg/kg/injection, schedule: Q04DX003 (ip), vehicle: Klucel (hydroxypropylcellulose) (HPC)
[6] = dose: 200.0 mg/kg/injection, schedule: Q04DX003 (ip), vehicle: Klucel (hydroxypropylcellulose) (HPC)
[7] = dose: 400.0 mg/kg/injection, schedule: Q04DX003 (ip), vehicle: Klucel (hydroxypropylcellulose) (HPC)
[8] = dose: 50.0 mg/kg/injection, schedule: Q01DX009 (ip), vehicle: saline with Tween-80
[9] = dose: 100.0 mg/kg/injection, schedule: Q01DX009 (ip), vehicle: saline with Tween-80
[10] = dose: 200.0 mg/kg/injection, schedule: Q01DX009 (ip), vehicle: saline with Tween-80
[11] = dose: 400.0 mg/kg/injection, schedule: Q01DX009 (ip), vehicle: saline with Tween-80
[12] = dose: 25.0 mg/kg/injection, schedule: Q01DX009 (ip), vehicle: saline with Tween-80

For C=CCn1c(=O)n(CC=C)c(=O)n(CC=C)c1=O, the T/C (dose: 100.0 mg/kg/injection, schedule: Q04DX003 (ip), vehicle: alcohol) was 100 % of control, the T/C (dose: 200.0 mg/kg/injection, schedule: Q04DX003 (ip), vehicle: alcohol) was 104 % of control and the T/C (dose: 400.0 mg/kg/injection, schedule: Q04DX003 (ip), vehicle: alcohol) was 109 % of control.
For CCn1cnc2c(C(F)(F)F)nc(N)nc21, the T/C [1] was 100 % of control, the T/C [2] was 110 % of control and the T/C [3] was 110 % of control.
In the case of CC(=O)c1c(O)c(C)c(O)c2c1OC1=CC(=O)C(C(C)=O)C(=O)C12C (stereo not drawn), the T/C (dose: 5.0 mg/kg/injection, schedule: Q01DX009 (ip), vehicle: gum acacia) was 100 % of control and 103 % of control, the T/C (dose: 10.0 mg/kg/injection, schedule: Q01DX009 (ip), vehicle: gum acacia) was 105 % of control and 108 % of control and the T/C (dose: 20.0 mg/kg/injection, schedule: Q01DX009 (ip), vehicle: gum acacia) was 107 % of control. The T/C (dose: 35.0 mg/kg/injection, schedule: Q01DX010 (ip), vehicle: saline) was 116 % of control, the T/C (dose: 40.0 mg/kg/injection, schedule: Q01DX009 (ip), vehicle: gum acacia) was 96 % of control and 105 % of control and the T/C (dose: 53.0 mg/kg/injection, schedule: Q01DX010 (ip), vehicle: saline) was 122 % of control. The T/C (dose: 79.0 mg/kg/injection, schedule: Q01DX010 (ip), vehicle: saline) was 122 % of control and the T/C (dose: 80.0 mg/kg/injection, schedule: Q01DX009 (ip), vehicle: gum acacia) was 103 % of control and 108 % of control.
CCCn1cnc2c(SCc3ccccc3Cl)nc(N)nc21 was tested, and the T/C [4] was 90 % of control, the T/C (dose: 100.0 mg/kg/injection, schedule: Q04DX003 (ip), vehicle: other) was 100 % of control and the T/C (dose: 200.0 mg/kg/injection, schedule: Q01DX009 (ip), vehicle: Klucel (hydroxypropylcellulose) (HPC)) was 95 % of control. The T/C (dose: 200.0 mg/kg/injection, schedule: Q04DX003 (ip), vehicle: other) was 95 % of control and the T/C (dose: 400.0 mg/kg/injection, schedule: Q04DX003 (ip), vehicle: other) was 104 % of control.
Cc1ccc(C(SCC(N)C(=O)O)(c2ccc(C)cc2)c2ccc(C)cc2)cc1 (stereo not drawn) was tested, and the T/C (dose: 65.0 mg/kg/injection, schedule: Q04DX003 (ip), vehicle: Klucel (hydroxypropylcellulose) (HPC)) was 159 % of control, the T/C [5] was 175 % of control and the T/C [6] was 185 % of control. The T/C (dose: 264.0 mg/kg/injection, schedule: Q04DX003 (ip), vehicle: Klucel (hydroxypropylcellulose) (HPC)) was 230 % of control and 150 % of control and the T/C [7] was 177 % of control and 190 % of control (2×).
For CNC(=O)C(C)(C)Br, the T/C (dose: 200.0 mg/kg/injection, schedule: Q04DX003 (ip), vehicle: saline) was 100 % of control and the T/C (dose: 400.0 mg/kg/injection, schedule: Q04DX003 (ip), vehicle: saline) was 90 % of control.
With COc1ccc(C2=CC(c3ccc4c(c3)OCO4)c3c(c4ccccc4oc3=O)O2)cc1OC (stereo not drawn) the T/C (dose: 12.5 mg/kg/injection, schedule: Q01DX009 (ip), vehicle: water) was 96 % of control, the T/C (dose: 25.0 mg/kg/injection, schedule: Q01DX009 (ip), vehicle: water) was 106 % of control and the T/C (dose: 50.0 mg/kg/injection, schedule: Q01DX009 (ip), vehicle: water) was 102 % of control. For the same compound, the T/C (dose: 50.0 mg/kg/injection, schedule: Q04DX003 (ip), vehicle: water) was 101 % of control, the T/C (dose: 100.0 mg/kg/injection, schedule: Q01DX009 (ip), vehicle: water) was 93 % of control and the T/C (dose: 100.0 mg/kg/injection, schedule: Q04DX003 (ip), vehicle: water) was 110 % of control. The T/C (dose: 200.0 mg/kg/injection, schedule: Q04DX003 (ip), vehicle: water) was 94 % of control and the T/C (dose: 400.0 mg/kg/injection, schedule: Q04DX003 (ip), vehicle: water) was 94 % of control.
For BrCc1c(CBr)c(CBr)c(CBr)c(CBr)c1CBr, the T/C [2] was 95 % of control, the T/C (dose: 25.0 mg/kg/injection, schedule: Q04DX003 (ip), vehicle: Klucel (hydroxypropylcellulose) (HPC)) was 109 % of control and the T/C [3] was 100 % of control. For the same compound, the T/C (dose: 50.0 mg/kg/injection, schedule: Q04DX003 (ip), vehicle: Klucel (hydroxypropylcellulose) (HPC)) was 100 % of control, the T/C [4] was 109 % of control and the T/C [5] was 95 % of control.
CCOC(=O)c1cc(N)c(C(=O)OCC)cc1N was tested, and the T/C [8] was 99 % of control and 114 % of control, the T/C [9] was 98 % of control and 108 % of control and the T/C [10] was 106 % of control. For the same compound, the T/C [11] was 99 % of control.
With NC(=O)c1nn(C2OC(CO)C(O)C2O)c2ncnc(N)c12 (stereo not drawn) the T/C [1] was 118 % of control.
For O.[NH-]C(Cc1ccc(O)cc1)C(=O)O.[Ni] (stereo not drawn), the T/C (dose: 6.25 mg/kg/injection, schedule: Q01DX009 (ip), vehicle: saline) was 98 % of control, the T/C (dose: 12.5 mg/kg/injection, schedule: Q01DX009 (ip), vehicle: saline) was 107 % of control and the T/C (dose: 25.0 mg/kg/injection, schedule: Q04DX003 (ip), vehicle: saline) was 100 % of control.
For CN=C(N)c1ccc(NC(=O)c2ccc(C(=O)Nc3ccc(C(N)=NC)cc3)c(N)c2)cc1, the T/C (dose: 2.0 mg/kg/injection, schedule: Q04DX003 (ip), vehicle: Klucel (hydroxypropylcellulose) (HPC)) was 107 % of control, the T/C (dose: 2.6 mg/kg/injection, schedule: Q01DX009 (ip), vehicle: Klucel (hydroxypropylcellulose) (HPC)) was 190 % of control and the T/C (dose: 3.0 mg/kg/injection, schedule: Q04DX003 (ip), vehicle: Klucel (hydroxypropylcellulose) (HPC)) was 115 % of control. The T/C (dose: 4.0 mg/kg/injection, schedule: Q01DX009 (ip), vehicle: Klucel (hydroxypropylcellulose) (HPC)) was 263 % of control, the T/C (dose: 6.0 mg/kg/injection, schedule: Q01DX009 (ip), vehicle: Klucel (hydroxypropylcellulose) (HPC)) was 272 % of control and the T/C (dose: 6.25 mg/kg/injection, schedule: Q01DX009 (ip), vehicle: Klucel (hydroxypropylcellulose) (HPC)) was 150 % of control. For the same compound, the T/C (dose: 8.0 mg/kg/injection, schedule: Q04DX003 (ip), vehicle: Klucel (hydroxypropylcellulose) (HPC)) was 150 % of control and 175 % of control, the T/C (dose: 12.0 mg/kg/injection, schedule: Q04DX003 (ip), vehicle: Klucel (hydroxypropylcellulose) (HPC)) was 170 % of control and 190 % of control and the T/C (dose: 12.5 mg/kg/injection, schedule: Q04DX003 (ip), vehicle: Klucel (hydroxypropylcellulose) (HPC)) was 169 % of control. For the same compound, the T/C (dose: 18.0 mg/kg/injection, schedule: Q04DX003 (ip), vehicle: Klucel (hydroxypropylcellulose) (HPC)) was 150 % of control and 209 % of control.
In the case of NC(=S)N/N=C/c1ccc(NC(=O)c2ccccc2C(=O)O)cc1, the T/C [12] was 95 % of control, the T/C [8] was 87 % of control and the T/C [9] was 100 % of control.
CCCC(NC(N)=O)C(CCC)NC(N)=O (stereo not drawn) was tested, and the T/C (dose: 12.5 mg/kg/injection, schedule: Q01DX009 (ip), vehicle: saline with Tween-80) was 102 % of control, the T/C [12] was 100 % of control and the T/C [8] was 89 % of control.
CCCCCCCC(O)CCC (stereo not drawn) was tested, and the T/C [5] was 108 % of control, the T/C [6] was 100 % of control and the T/C [7] was 87 % of control.
With ClCC#Cc1ccccc1 the T/C [1] was 109 % of control, the T/C [2] was 86 % of control and the T/C [3] was 100 % of control.
In the case of Fc1ccc(-c2n[nH]c3c2CCCc2ccccc2-3)cc1, the T/C (dose: 100.0 mg/kg/injection, schedule: Q04DX003 (ip), vehicle: saline with Tween-80) was 114 % of control, the T/C (dose: 200.0 mg/kg/injection, schedule: Q04DX003 (ip), vehicle: saline with Tween-80) was 114 % of control and the T/C (dose: 400.0 mg/kg/injection, schedule: Q04DX003 (ip), vehicle: saline with Tween-80) was 123 % of control.
OCC1=CCCCC1 was tested, and the T/C [8] was 106 % of control, the T/C [9] was 98 % of control and the T/C [10] was 104 % of control.
With OC(C1CCCCC1)(C1CCCCC1)C1CCCCC1 the T/C (dose: 100.0 mg/kg/injection, schedule: Q01DX009 (ip), vehicle: other) was 104 % of control, the T/C [5] was 91 % of control and the T/C (dose: 200.0 mg/kg/injection, schedule: Q01DX009 (ip), vehicle: other) was 100 % of control. For the same compound, the T/C [6] was 100 % of control, the T/C (dose: 400.0 mg/kg/injection, schedule: Q01DX009 (ip), vehicle: other) was 109 % of control and the T/C [7] was 91 % of control.
With OC1CCC2(CC1)Cc1ccccc1C2O (stereo not drawn) the T/C (dose: 100.0 mg/kg/injection, schedule: Q01DX001 (ip), vehicle: saline with Tween-80) was 114 % of control, the T/C (dose: 200.0 mg/kg/injection, schedule: Q01DX001 (ip), vehicle: saline with Tween-80) was 119 % of control and the T/C (dose: 400.0 mg/kg/injection, schedule: Q01DX001 (ip), vehicle: saline with Tween-80) was 119 % of control.
For c1ccc2cc3c(cc2c1)Cn1c-3nc2ccccc21, the T/C [9] was 100 % of control, the T/C [10] was 100 % of control and the T/C [11] was 95 % of control.
